# Literature values as cited in PubChem BioAssay AID1259410 (Chemical Carcinogenesis Research Information System (CCRIS), 2018).
# Tested on: rodent tumor promotion studies, tumor incidence
# Assay: CCRIS tumor promotion studies
smiles,measurement,setting,value
OCc1c[nH]c2ccccc12,outcome,"Carcinogen: DIETHYLNITROSAMINE, 55-18-5, N-METHYL-N-NITROSOUREA, 684-93-5, DIHYDROXY-DI-N-PROPYLNITROSAMINE, 53069-64-6, Carcinogen: DIETHYLNITROSAMINE, 55-18-5, N-METHYL-N-NITROSOUREA, 684-93-5, DIHYDROXY-DI-N-PROPYLNITROSAMINE, 53069-64-6, Doses [Carcinogen]: 100 MG/KG BW DEN ONCE THEN 20 MG/KG BW MNU ONCE ON DAYS 5, 8, 11, AND 14 FOLLOWED BY 0.1% DHEN IN DRINKING WATER FOR 2 W, Doses [Promoter]: 0, 0.25% IN DIET FOR 20 WK BEGINNING POST CARCINOGEN TREATMENT (STUDY DURATION: 52 WK), Route [Carcinogen]: INTRAPERITONEAL, INTRAPERITONEAL, ORAL, Route [Carcinogen]: INTRAPERITONEAL, INTRAPERITONEAL, ORAL, Route [Promoter]: ORAL, Species: RAT, Strain/Sex: SPRAGUE-DAWLEY/MALE",thyroid gland: follicular cell adenoma or carcinoma
same,outcome,"Carcinogen: DIETHYLNITROSAMINE, 55-18-5, N-METHYL-N-NITROSOUREA, 684-93-5, DIHYDROXY-DI-N-PROPYLNITROSAMINE, 53609-64-6, Carcinogen: DIETHYLNITROSAMINE, 55-18-5, N-METHYL-N-NITROSOUREA, 684-93-5, DIHYDROXY-DI-N-PROPYLNITROSAMINE, 53609-64-6, Doses [Carcinogen]: 100 MG/KG BW DEN ONCE, 20 MG/KG BW MNU 2/WK FOR 2 WK, THEN 0.1% DHPN IN DRINKING WATER FOR 2 WK, Doses [Promoter]: O, 0.25% IN DIET FOR 20 WK BEGINNING POST CARCINOGEN TREATMENT (STUDY DURATION: 52 WK), Route [Carcinogen]: INTRAPERITONEAL, INTRAPERITONEAL, ORAL, Route [Carcinogen]: INTRAPERITONEAL, INTRAPERITONEAL, ORAL, Route [Promoter]: ORAL, Species: RAT, Strain/Sex: SPRAGUE-DAWLEY/MALE",thyroid gland: adenoma and adenocarcinoma
same,outcome,"Doses [Carcinogen]: 0.5 PPM FOR 30 MIN, Doses [Promoter]: 0, 1000 PPM IN DIET BEGINNING 14 WK POST CARCINOGEN DOSE (STUDY DURATION: 12 MO), Route [Carcinogen]: IMMERSION, Route [Promoter]: ORAL, Species: FISH, Strain/Sex: RAINBOW TROUT",liver: tumor
same,outcome,"Doses [Carcinogen]: 12.5 PPB IN WATER FOR 30 MIN, Doses [Promoter]: 0, 2000 PPM IN DIET BEGINNING 4 WK POST CARCINOGEN DOSE AND CONTINUING FOR DURATION OF STUDY (STUDY DURATION: 36 WK), Route [Carcinogen]: IMMERSION, Route [Promoter]: ORAL, Species: FISH, Strain/Sex: RAINBOW TROUT",liver: tumor
same,outcome,"Doses [Carcinogen]: 12.5 PPB IN WATER FOR 30 MIN, Doses [Promoter]: 0, 2000 PPM IN DIET BEGINNING 12 WK POST CARCINOGEN DOSE AND CONTINUING FOR 12 WK FOLLOWED BY CONTROL DIET FOR 12 WK (ST, Route [Carcinogen]: IMMERSION, Route [Promoter]: ORAL, Species: FISH, Strain/Sex: RAINBOW TROUT",liver: tumor
same,outcome,"Doses [Carcinogen]: 12.5 PPB IN WATER FOR 30 MIN, Doses [Promoter]: 0, 2000 PPM IN DIET BEGINNING 12 WK POST CARCINOGEN DOSE AND CONTINUING FOR DURATION OF STUDY (STUDY DURATION: 36 WK), Route [Carcinogen]: IMMERSION, Route [Promoter]: ORAL, Species: FISH, Strain/Sex: RAINBOW TROUT",liver: tumor
same,outcome,"Doses [Carcinogen]: 12.5 PPB IN WATER FOR 30 MIN, Doses [Promoter]: 0, 2000 PPM IN DIET FOR 24 WK BEGINNING POST CARCINOGEN DOSE (STUDY DURATION: 36 WK), Route [Carcinogen]: IMMERSION, Route [Promoter]: ORAL, Species: FISH, Strain/Sex: RAINBOW TROUT",liver: tumor
same,outcome,"Doses [Carcinogen]: 12.5 PPB IN WATER FOR 30 MIN, Doses [Promoter]: 0, 2000 PPM IN DIET FOR 36 WK BEGINNING POST CARCINOGEN DOSE (STUDY DURATION: 36 WK), Route [Carcinogen]: IMMERSION, Route [Promoter]: ORAL, Species: FISH, Strain/Sex: RAINBOW TROUT",liver: tumor
same,outcome,"Doses [Carcinogen]: 50-250 PPM IN WATER FOR 30 MIN, Doses [Promoter]: 0, 500, 750, 1000, 1250 PPM IN DIET BEGINNING 3 MO POST CARCINOGEN TREATMENT (STUDY DURATION: 13 MO), Doses [Promoter]: 0, 500, 750, 1000, 1250 PPM IN DIET BEGINNING 3 MO POST CARCINOGEN TREATMENT (STUDY DURATION: 13 MO), Route [Carcinogen]: IMMERSION, Route [Promoter]: ORAL, Species: FISH, Strain/Sex: RAINBOW TROUT/MALE, FEMALE",liver: tumor
same,outcome,"Doses [Carcinogen]: 50 PPB IN WATER FOR 30 MIN, Doses [Promoter]: 0, 2000 PPM IN DIET BEGINNING POST CARCINOGEN DOSE AND ADMINISTERED 2 D/WK FOR DURATION OF STUDY (STUDY DURATION: 36 WK), Route [Carcinogen]: IMMERSION, Route [Promoter]: ORAL, Species: FISH, Strain/Sex: RAINBOW TROUT",liver: tumor
same,outcome,"Doses [Carcinogen]: 50 PPB IN WATER FOR 30 MIN, Doses [Promoter]: 0, 2000 PPM IN DIET BEGINNING POST CARCINOGEN DOSE AND ADMINISTERED FOR 1 WK ALTERNATING WEEKLY WITH CONTROL DIET (STUDY, Route [Carcinogen]: IMMERSION, Route [Promoter]: ORAL, Species: FISH, Strain/Sex: RAINBOW TROUT",liver: tumor
C[C@H](CCC(=O)O)[C@H]1CC[C@H]2[C@@H]3CC[C@@H]4C[C@H](O)CC[C@]4(C)[C@H]3CC[C@]12C,outcome,"Carcinogen: 3-METHYLCHOLANTHRENE, 56-49-5, Doses [Carcinogen]: 3 MG IN BEESWAX PELLET, Doses [Promoter]: 0, 3 MG IN BEESWAX PELLET (STUDY DURATION: 5 MO), Route [Carcinogen]: IMPLANT, Route [Promoter]: IMPLANT, Species: HAMSTER",gallbladder: tumor
same,outcome,"Doses [Carcinogen]: IR, Route [Carcinogen]: RECTAL, Route [Promoter]: RECTAL, Species: RAT, Strain/Sex: MALE,FEMALE",colon
[O-][Br+2]([O-])O,outcome,"Carcinogen: 7,12-Dimethylbenz[a]anthracene, 57-97-6, Doses [Carcinogen]: 20 nmole as a single topical application, Doses [Promoter]: 0, 40 mg/ml on skin for 51 wk (study duration: 51 wk), Route [Carcinogen]: Dermal, Route [Promoter]: Dermal, Species: Mouse, Strain/Sex: Sencar/Female (20/group)",skin: negative as both a complete carcinogen and as a promoter
same,outcome,"Carcinogen: N-ETHYL-N-HYDROXYETHYLNITROSAMINE, 13147-25-6, Doses [Carcinogen]: 500 PPM IN DRINKING WATER FOR 2 WK, Doses [Promoter]: 0, 500 PPM IN DRINKING WATER BEGINNING POST CARCINOGEN TREATMENT AND CONTINUING FOR 24 WK (STUDY DURATION: 26 WK), Route [Carcinogen]: ORAL, Route [Promoter]: ORAL, Species: RAT, Strain/Sex: F344/MALE",kidney: tumors
same,outcome,"Carcinogen: N-Ethyl-N-hydroxyethylnitrosamine, 13147-25-6, Doses [Carcinogen]: 0.05% in drinking water for 2 wk, Doses [Promoter]: 0, 500 ppm in drinking water beginning post carcinogen treatment and continuing for 30 wk (study duration: 32 wk), Route [Carcinogen]: Oral, Route [Promoter]: Oral, Species: Rat, Strain/Sex: F344/Female (15/group)",kidney: renal cell tumors
same,outcome,"Carcinogen: N-Ethyl-N-hydroxyethylnitrosamine, 13147-25-6, Doses [Carcinogen]: 500 ppm in drinking water for 2 wk, Doses [Promoter]: 0, 15, 30, 60, 125, 250, 500 ppm in drinking water beginning post carcinogen treatment and continuing for 24 wk (study d, Doses [Promoter]: 0, 15, 30, 60, 125, 250, 500 ppm in drinking water beginning post carcinogen treatment and continuing for 24 wk (study d, Route [Carcinogen]: Oral, Route [Promoter]: Oral, Species: Rat, Strain/Sex: F344/Male (15/group)",kidney: renal cell tumors
CCCCN(CCCC)N=O,outcome,"Carcinogen: DIETHYLNITROSAMINE, 55-18-5, N-METHYLNITROSOUREA, 684-93-3, DIHYDROXY-DI-N- PROPYLNITROSAMINE, 53609-64-6, Carcinogen: DIETHYLNITROSAMINE, 55-18-5, N-METHYLNITROSOUREA, 684-93-3, DIHYDROXY-DI-N- PROPYLNITROSAMINE, 53609-64-6, Doses [Carcinogen]: 100 MG/KG IN SALINE AT BEGINNING OF STUDY, 20 MG/KG IN CITRATE BUFFERED SOLUTION ON D 2, 5, 8 AND 11, 0.1% IN DRINKING, Doses [Carcinogen]: 100 MG/KG IN SALINE AT BEGINNING OF STUDY, 20 MG/KG IN CITRATE BUFFERED SOLUTION ON D 2, 5, 8 AND 11, 0.1% IN DRINKING, Doses [Promoter]: 0, 50 PPM IN DRINKING WATER BEGINNING POST SEQUENTIAL CARCINOGEN TREATMENT AND CONTINUING FOR DURATION OF STUDY (STUDY D, Route [Carcinogen]: IP, IP, ORAL, Route [Carcinogen]: IP, IP, ORAL, Route [Promoter]: ORAL, Species: RAT, Strain/Sex: F344/MALE","esophagus: papilloma, squamous cell carcinoma; tongue: papilloma"
same,outcome,"Carcinogen: DIETHYLNITROSAMINE, 55-18-5, N-METHYLNITROSOUREA, 684-93-5, DIHYDROXY-DI-N- PROPYLNITROSAMINE, 53609-64-6, Carcinogen: DIETHYLNITROSAMINE, 55-18-5, N-METHYLNITROSOUREA, 684-93-5, DIHYDROXY-DI-N- PROPYLNITROSAMINE, 53609-64-6, Doses [Carcinogen]: 100 MG/KG IN SALINE AT BEGINNING OF STUDY, 20 MG/KG IN CITRATE BUFFERED SOLUTION ON D 2, 5, 8 AND 11, 0.1% IN DRINKING, Doses [Carcinogen]: 100 MG/KG IN SALINE AT BEGINNING OF STUDY, 20 MG/KG IN CITRATE BUFFERED SOLUTION ON D 2, 5, 8 AND 11, 0.1% IN DRINKING, Doses [Promoter]: 0, 50 PPM IN DRINKING WATER BEGINNING POST SEQUENTIAL CARCINOGEN TREATMENT AND CONTINUING FOR DURATION OF STUDY (STUDY D, Route [Carcinogen]: IP, IP, ORAL, Route [Carcinogen]: IP, IP, ORAL, Route [Promoter]: ORAL, Species: RAT, Strain/Sex: F344/MALE",lung: adenoma; esophagus: papilloma
